Source: US20070128217A1 (priority 2003, published 2007)

Columns and labels:
[1] = system: antibodies in sera from SARS patients (sera 1a, 1b, 2, 6, 37, 62, London, SARS-yellow, SARS-green); assay type: binding, human; set-up: Binding of serum 6 to linear peptides of protein X1 of SARS-CoV Urbani / Binding of serum 37 to linear peptides of protein X1 of SARS-CoV Urbani / Binding of serum 6 to looped/cyclic peptide (PEPSCAN-ELISA) / Binding of serum 37 to looped/cyclic peptide (PEPSCAN-ELISA) / Binding of serum 37 to looped/cyclic peptides of protein X1 of SARS-CoV Urbani / Binding of serum 6 to linear peptides of protein X2 / Binding of serum 37 to linear peptides of protein X2 / Binding of serum 37 to looped/cyclic peptides of protein X2 of SARS-CoV Urbani / Binding of serum 6 to linear peptides of protein M of SARS-CoV Urbani / Binding of serum 37 to linear peptides of protein M of SARS-CoV Urbani / Binding of serum 6 to looped/cyclic peptides of protein M of SARS-CoV Urbani / Binding of serum 37 to looped/cyclic peptides of protein M of SARS-CoV Urbani / Binding of serum 6 to linear peptides of protein X3 of SARS-CoV Urbani / Binding of serum 37 to linear peptides of protein X3 of SARS-CoV Urbani / Binding of serum 37 to looped/cyclic peptides of protein X3 of SARS-CoV Urbani / Binding of serum 6 to linear peptides of protein X4 of SARS-CoV Urbani / Binding of serum 37 to linear peptides of protein X4 of SARS-CoV Urbani / Binding of serum 37 to looped/cyclic peptides of protein X4 of SARS-CoV Urbani / Binding of serum 6 to linear peptides of protein X5 of SARS-CoV Urbani / Binding of serum 37 to linear peptides of protein X5 of SARS-CoV Urbani / Binding of serum 37 to looped/cyclic peptides of protein X5 of SARS-CoV Urbani / Binding of serum 6 to linear peptides of protein N of SARS-CoV Urbani / Binding of serum 37 to linear peptides of protein N of SARS-CoV Urbani / Binding of serum 6 to linear peptide (PEPSCAN-ELISA) / Binding of serum 1a to looped/cyclic peptides of protein N of SARS-CoV Urbani / Binding of serum 1b to looped/cyclic peptides of protein N of SARS-CoV Urbani / Binding of serum 2 to looped/cyclic peptides of protein N of SARS-CoV Urbani / Binding of serum 6 to looped/cyclic peptides of protein N of SARS-CoV Urbani / Binding of serum 37 to looped/cyclic peptides of protein N of SARS-CoV Urbani / Binding of serum 62 to looped/cyclic peptides of protein N of SARS-CoV Urbani / Binding of serum London to looped/cyclic peptides of protein N of SARS-CoV Urbani / Binding of serum SARS-green to looped/cyclic peptides of protein N of SARS-CoV Urbani: unit not given here
[2] = system: control sera (pooled serum of ten healthy LUMC hospital workers; commercial negative donor pooled serum from the Dutch bloodbank); assay type: binding, human; set-up: Binding of Control serum LUMC to linear peptides / Binding of Control serum Blood-bank to linear peptides / Binding of Control serum LUMC to looped peptides / Binding of Control Serum Blood-Bank to Looped peptides / Binding of Control serum LUMC to linear peptides of the protein M of SARS-CoV Urbani / Binding of Control serum Blood-bank to linear peptides of the protein M of SARS-CoV Urbani / Binding of Control serum LUMC to looped peptides of the protein M of SARS-CoV Urbani / Binding of Control Serum Blood-Bank to Looped peptides of the protein M of SARS-CoV Urbani: unit not given here
[3] = system: rabbit serum obtained by immunizing a rabbit with the SARS-CoV strain Frankfurt 1; assay type: binding; set-up: Binding of a rabbit serum to linear peptides / Binding of a rabbit serum to looped peptides / Rabbit serum linear peptides / Rabbit serum looped peptides / Binding of a rabbit serum to linear peptides of protein N of SARS-CoV Urbani (Rabbit serum linear peptides) / Binding of a rabbit serum to looped/cyclic peptides of protein N of SARS-CoV Urbani (Rabbit serum looped peptides): unit not given here

Sequence	Binding of serum 1a to linear peptides of protein X1 of SARS-CoV Urbani [1]	Binding of serum 1a to looped/cyclic peptide (PEPSCAN-ELISA) [1]	Binding of serum 1b to linear peptides of protein X1 of SARS-CoV Urbani [1]	Binding of serum 1b to looped/cyclic peptide (PEPSCAN-ELISA) [1]	Binding of serum 2 to linear peptides of protein X1 of SARS-CoV Urbani [1]	Binding of serum 2 to looped/cyclic peptide (PEPSCAN-ELISA) [1]	Binding of serum 6 to linear peptides of protein X1 of SARS-CoV Urbani [1]	Binding of serum 6 to looped/cyclic peptide (PEPSCAN-ELISA) [1]	Binding of serum 37 to linear peptides of protein X1 of SARS-CoV Urbani [1]	Binding of serum 37 to looped/cyclic peptide (PEPSCAN-ELISA) [1]	Binding of serum 62 to linear peptides of protein X1 of SARS-CoV Urbani [1]	Binding of serum 62 to looped/cyclic peptide (PEPSCAN-ELISA) [1]	Binding of serum London to linear peptides of protein X1 of SARS-CoV Urbani [1]	Binding of serum London to looped/cyclic peptide (PEPSCAN-ELISA) [1]	Binding of Control Serum Blood-Bank to Looped peptides [2]	Binding of Control serum Blood-bank to linear peptides [2]	Binding of Control serum LUMC to linear peptides [2]	Binding of Control serum LUMC to looped peptides [2]	Binding of a rabbit serum to linear peptides [3]	Binding of a rabbit serum to looped peptides [3]	other results
LYKGFQFICNLLLLF	0.6	0.5	0.5	0.3	0.5	0.3	0.4	1.5	0.5	0.4	0.4	0.5	0.2	1.7	0.4	0.5	0.5	0.6	0.2	0.3	Binding of serum SARS-green to linear peptides of protein X1 of SARS-CoV Urbani [1]: 0.2; Binding of serum SARS-green to looped/cyclic peptide (PEPSCAN-ELISA) [1]: 0.2; Binding of serum SARS-yellow to linear peptides of protein X1 of SARS-CoV Urbani [1]: 0.4; Binding of serum SARS-yellow to looped/cyclic peptide (PEPSCAN-ELISA) [1]: 0.3
LYLYALIYFLQCINA	0.7	0.3	0.5	0.3	0.4	0.2	0.3	0.3	0.5	0.4	0.5	0.4	0.2	0.2	0.5	0.5	0.5	0.4	0.1	0.5	Binding of serum SARS-green to linear peptides of protein X1 of SARS-CoV Urbani [1]: 0.2; Binding of serum SARS-green to looped/cyclic peptide (PEPSCAN-ELISA) [1]: 0.2; Binding of serum SARS-yellow to linear peptides of protein X1 of SARS-CoV Urbani [1]: 0.5; Binding of serum SARS-yellow to looped/cyclic peptide (PEPSCAN-ELISA) [1]: 0.3
LYMAISPKFTTSLSL															0.7	0.6	0.3	0.8	0.3	0.5	Binding of serum 1a to linear peptides of protein X2 [1]: 0.7; Binding of serum 1a to looped/cyclic peptides of protein X2 of SARS-CoV Urbani [1]: 0.6; Binding of serum 1b to linear peptides of protein X2 [1]: 0.5; Binding of serum 1b to looped/cyclic peptides of protein X2 of SARS-CoV Urbani [1]: 0.5; Binding of serum 2 to linear peptides of protein X2 [1]: 0.5; Binding of serum 2 to looped/cyclic peptides of protein X2 of SARS-CoV Urbani [1]: 0.5; Binding of serum 6 to linear peptides of protein X2 [1]: 0.3; Binding of serum 6 to looped/cyclic peptides of protein X2 of SARS-CoV Urbani [1]: 0.5; Binding of serum 37 to linear peptides of protein X2 [1]: 0.6; Binding of serum 37 to looped/cyclic peptides of protein X2 of SARS-CoV Urbani [1]: 0.5; Binding of serum 62 to linear peptides of protein X2 [1]: 0.6; Binding of serum 62 to looped/cyclic peptides of protein X2 of SARS-CoV Urbani [1]: 0.7; Binding of serum London to linear peptides of protein X2 [1]: 0.3; Binding of serum London to looped/cyclic peptides of protein X2 of SARS-CoV Urbani [1]: 0.6; Binding of serum SARS-green to linear peptides of protein X2 [1]: 0.5; Binding of serum SARS-green to looped/cyclic peptides of protein X2 of SARS-CoV Urbani [1]: 0.4; Binding of serum SARS-yellow to linear peptides of protein X2 [1]: 0.6; Binding of serum SARS-yellow to looped/cyclic peptides of protein X2 of SARS-CoV Urbani [1]: 0.5
